Results on 23 compounds are retold here after US7563787B2, “Substituted pyrazole compounds” (Miikana Therapeutics, Inc., priority 2005, dated 2009).

The term inhibition denotes the change of the read-out against control, counted positive when it falls.

One assay concerns HCT-116 cell growth. Briefly: Whole Cell Cytotoxicity Assay: Sulforhodamine B. It is filed as cell-based, Human. Conditions: 100 μM compound, 96 hours, SRB staining; for inhibition at 100 µM: Homo sapiens, HCT-116. On the procedure: Human tumor-derived cell lines, HCT116 or MCF7 (ATCC) were plated in a 96 well plate in DMEM containing 10% fetal bovine serum and 2 mM L-glutamine at a density of 500 HCT116 cells or 1,000 MCF7 cells per well and incubated at 37° C., 5% CO2, for 24 hours prior to the addition of experimental compounds. Compounds were added using the dilution series indicated to duplicate plates and the cells were incubated in media plus compound for 96 hours. An additional plate was fixed in 10% TCA at the time of the addition of compound to provide a measurement of the cell population at time zero, the time of drug addition. Following the 96 hour incubation, cells were fixed in situ by gently aspirating off the culture media and then adding 50 ul of ice cold 10% TCA per well and incubation at 4° C. for 60 minutes. The plates were washed with tap water five times and allowed to air dry for 5 minute. 50 ul of a 0.4% (w/v) Sulforhodamine B solution in 1% (v/v) acetic acid was added per well and the cells were incubated for 30 minutes at room temperature. Following staining, plates were washed four times with 1% acetic acid to remove any unbound dye and then allowed to air dry for 5 minutes. The stain was solubilized with 100 ul of 10 mM Tris pH 10.5 per well and placed on an orbital rotator for 5 minutes. The absorbance was read at 570 nm. Percentage growth was calculated using the absorbance readings from the time zero plate (Tz) and the dilution series plate […] which included a column of cells grown in media without compound as a control (C) using the formulas: [(Ti−Tz)/(C−Tz)]×100 for concentrations for which Ti>/=Tz [(Ti−Tz)/Tz]×100 for concentrations for which Ti<Tz.
Three dose response parameters were calculated for each experimental agent. Growth inhibition of 50% (GI50) was calculated from [(Ti−Tz)/(C−Tz)]×100=50, which was the drug concentration resulting in a 50% reduction in the net protein increase (as measured by SRB staining) in control cells during the drug incubation. The drug concentration resulting in total growth inhibition (TGI) was calculated from Ti=Tz. The LC50 (concentration of drug resulting in a 50% reduction in the measured protein at the end of the drug treatment as compared to that at the beginning) indicating a net loss of cells following treatment was calculated from [(Ti−Tz)/Tz]×100=−50. Values are calculated for each of these three parameters if the level of activity was reached; however, if the effect was not reached or was exceeded, the value for that parameter is expressed as greater or less than the maximum or minimum concentration tested.
A general note: Sulforhodamine B stains cellular protein and so reports cell mass.

The next assay concerns the target T1, recombinant Aurora A (Homo sapiens, UniProt O14965).
T1 construct: purchased Upstate, Lake Placid, N.Y
T1 sequence (O14965 1-403): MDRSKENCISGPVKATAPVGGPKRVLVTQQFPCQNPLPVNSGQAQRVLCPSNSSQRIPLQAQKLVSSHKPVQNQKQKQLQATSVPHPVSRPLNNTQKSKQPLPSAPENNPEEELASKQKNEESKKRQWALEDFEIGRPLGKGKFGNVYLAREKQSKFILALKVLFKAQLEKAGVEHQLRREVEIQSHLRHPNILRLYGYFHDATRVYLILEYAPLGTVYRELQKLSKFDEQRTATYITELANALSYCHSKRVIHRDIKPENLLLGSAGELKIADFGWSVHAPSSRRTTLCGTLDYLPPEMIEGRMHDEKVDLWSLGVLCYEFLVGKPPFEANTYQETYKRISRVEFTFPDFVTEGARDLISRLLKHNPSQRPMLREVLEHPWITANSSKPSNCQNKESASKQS
The assay can be described thus: Aurora A (Aurora 2) Inhibition Assay (Z'-Lyte). Conditions: 100 μM compound; ATP 10 μM; 1 h. It is filed as biochemical. On the procedure: Compounds were tested for their potency against recombinant Aurora A (Upstate, Lake Placid, N.Y.) using the PanVera Z'-Lyte kinase assay kit-Ser/[…] peptide (Invitrogen, Carlsbad, Calif.). […] Assays were carried out in half-area 96-well white polystyrene assay plates (Corning, Corning, N.Y.) in a final volume of 20 μl. The reaction was allowed to proceed for 1 h at room temperature in the dark, at which point the development reagent and stop reagent were added according to the manufacturer's instructions. Coumarin (Ex. 400 nm, Em. 465 nm) and fluorescein (Ex. 400 nm, Em. 565 nm) fluorescence values were measured on a SpectraFluor Plus plate reader (Tecan, Durham, N.C.). The emission ratio (coumarin/fluorescein) was determined and used to calculate the percent phosphorylation for each well. […] Typically 20-40% of the substrate was phosphorylated in wells without inhibitor. Dose-response curves of relative Aurora A activity vs. inhibitor concentration were plotted with Grafit (Erithacus Software, Horley, Surrey, UK).

“2-(4-methoxystyryl)-N-(5-methyl-1H-pyrazol-3-yl)-6-(4-methylpiperazin-1-yl)pyrimidin-4-amine [Example 161]”: in the assay with HCT-116 cell growth, the “% Inhibition of HCT-116 cell growth @ 100 μM” value worked out at 93%. For the same compound, the “% Inhibition of Aurora A @ 100 μM” value on recombinant Aurora A is reported as 100%.
As for `Cc1cc(Nc2nc(/C=C/c3ccccc3)nc(N3CCN(C)CC3)c2[N+](=O)[O-])[nH]n1` [Example 4, 6-(4-methylpiperazin-1-yl)-N-(3-methyl-1H-pyrazol-5-yl)-5-nitro-2-[(E)-2-phenylvinyl]pyrimidin-4-amine], the inhibition at 100 µM worked out at 87% in the assay with HCT-116 cell growth and 91% on recombinant Aurora A.
With `Cc1cc(Nc2nc(/C=C/c3ccccc3)nc(Nc3cc(C)n[nH]3)c2N)[nH]n1` [Example 11], the inhibition at 100 µM was 99% with HCT-116 cell growth and 98% on recombinant Aurora A.
For `Cc1cc(Nc2nc(/C=C/c3ccccc3)nc(N3CCOCC3)c2N)[nH]n1` [Example 12, N-(3-methyl-1H-pyrazol-5-yl)-6-(morpholin-4-yl)-2-[(E)-2-phenylvinyl]pyrimidin-4,5-diamine], the inhibition at 100 µM in the assay on HCT-116 cell growth came out at 99%; at recombinant Aurora A, 100%.
`Cc1cc(Nc2nc(/C=C/c3ccccc3)nc(N3CCNCC3)c2N)[nH]n1` [Example 13, N-(3-methyl-1H-pyrazol-5-yl)-6-(piperazin-1-yl)-2-[(E)-2-phenylvinyl]pyrimidin-4,5-diamine]: the inhibition at 100 µM at recombinant Aurora A came out at 93%.
In the case of `Cc1cc(Nc2nc(/C=C/c3ccccc3)nc(N3CCCCC3)c2N)[nH]n1` [Example 14, N-(3-methyl-1H-pyrazol-5-yl)-6-(piperidin-1-yl)-2-[(E)-2-phenylvinyl]pyrimidin-4,5-diamine], at recombinant Aurora A, the inhibition at 100 µM is 98%.
`Cc1cc(Nc2nc(/C=C/c3ccccc3)nc(N3CCCC3)c2N)[nH]n1` [Example 15, N-(3-methyl-1H-pyrazol-5-yl)-6-(pyrrolidin-1-yl)-2-[(E)-2-phenylvinyl]pyrimidin-4,5-diamine]: the inhibition at 100 µM in the assay on HCT-116 cell growth came to 91%; at recombinant Aurora A, 100%.
The corresponding values for `CCOC(=O)c1nc(/C=C/c2ccccc2)nc(Nc2cc(C)n[nH]2)c1[N+](=O)[O-]` [Example 17, ethyl 6-[(3-methyl-1H-pyrazol-5-yl)amino]-5-nitro-2-[(E)-2-phenylvinyl]pyrimidine-4-carboxylate] are 93% and 62%.
On to `CCOC(=O)c1nc(/C=C/c2ccc(Cl)cc2)nc(Nc2cc(C)n[nH]2)c1N` [Example 19, ethyl 5-amino-2-[(E)-2-(4-chlorophenyl)vinyl]-6-[(3-methyl-1H-pyrazol-5-yl)amino]pyrimidine-4-carboxylate], for which the inhibition at 100 µM in the assay with HCT-116 cell growth is 96%; at recombinant Aurora A it was 99%.
As to `CCOC(=O)c1nc(/C=C/c2ccc(C(F)(F)F)cc2)nc(Nc2cc(C)n[nH]2)c1N` [Example 20, ethyl 5-amino-6-[(3-methyl-1H-pyrazol-5-yl)amino]-2-{(E)-2-[4-(trifluoromethyl)phenyl]vinyl}pyrimidine-4-carboxylate], the values for the inhibition at 100 µM in the assay with HCT-116 cell growth and at recombinant Aurora A were 97% and 77%, respectively.
The corresponding values for `CCOC(=O)c1nc(/C=C/c2ccc(C)cc2)nc(Nc2cc(C)n[nH]2)c1N` [Example 21, ethyl 5-amino-2-[(E)-2-(4-methylphenyl)vinyl]-6-[(3-methyl-1H-pyrazol-5-yl)amino]pyrimidine-4-carboxylate] are 93% and 100%.
As for `CCOC(=O)c1nc(/C=C/c2cccc(F)c2)nc(Nc2cc(C)n[nH]2)c1N` [Example 22, ethyl 5-amino-2-[(E)-2-(3-fluorophenyl)vinyl]-6-[(3-methyl-1H-pyrazol-5-yl)amino]pyrimidine-4-carboxylate], the figures for the inhibition at 100 µM with HCT-116 cell growth and on recombinant Aurora A were 85% and 97%, respectively.
In the case of `CCOC(=O)c1nc(/C=C/c2ccc(OC)cc2)nc(Nc2cc(C)n[nH]2)c1N` [Example 23, ethyl 5-amino-2-[(E)-2-(4-methoxyphenyl)vinyl]-6-[(3-methyl-1H-pyrazol-5-yl)amino]pyrimidine-4-carboxylate], the inhibition at 100 µM in the assay with HCT-116 cell growth worked out at 91%; on recombinant Aurora A, 99%.
Consider `Cc1cc(Nc2nc(/C=C/c3ccccc3)nc(C(=O)OC3CCN(C)CC3)c2N)[nH]n1` [Example 24, 1-methylpiperidin-4-yl 5-amino-6-[(3-methyl-1H-pyrazol-5-yl)amino]-2-[(E)-2-phenylvinyl]pyrimidine-4-carboxylate], for which the inhibition at 100 µM in the assay with HCT-116 cell growth came to 99%; on recombinant Aurora A, 100%.
`Cc1cc(Nc2nc(/C=C/c3ccccc3)nc(C(=O)NCCN3CCOCC3)c2N)[nH]n1` [Example 25, N-(2-morphholin-4-ylethyl)-5-amino-6-[(3-methyl-1H-pyrazol-5-yl)amino]-2-[(E)-2-phenylvinyl]pyrimidine-4-carboxamide]: the inhibition at 100 µM in the assay with HCT-116 cell growth was 95%; at recombinant Aurora A, 100%.
With `Cc1cc(Nc2cc(Cl)nc(/C=C/c3ccccc3)n2)n[nH]1` [Example 34, 6-chloro-N-(3-methyl-1H-pyrazol-5-yl)-2-[(E)-2-phenylvinyl]pyrimidin-4-amine], the inhibition at 100 µM with HCT-116 cell growth stood at 98%; on recombinant Aurora A it was 99%.
As for `COC(=O)c1ccc(/C=C/c2nc(Cl)c([N+](=O)[O-])c(Nc3cc(C)[nH]n3)n2)cc1` [Example 37, methyl 4-((E)-2-{4-chloro-6-[(3-methyl-1H-pyrazol-5-yl)amino]-5-nitropyrimidin-2-yl}vinyl)benzoate], the inhibition at 100 µM at recombinant Aurora A turned out to be 80%.
Consider `COC(=O)c1ccc(/C=C/c2nc(Nc3cc(C)[nH]n3)c([N+](=O)[O-])c(N3CCN(C)CC3)n2)cc1` [Example 38, methyl 4-((E)-2-{4-(4-methylpiperazin-1-yl)-6-[(3-methyl-1H-pyrazol-5-yl)amino]-5-nitropyrimidin-2-yl}vinyl)benzoate], for which the inhibition at 100 µM at recombinant Aurora A amounted to 99%.
In the case of `COC(=O)c1ccc(/C=C/c2nc(Nc3cc(C)[nH]n3)c(N)c(N3CCN(C)CC3)n2)cc1` [Example 39, methyl 4-((E)-2-{5-amino-4-(4-methylpiperazin-1-yl)-6-[(3-methyl-1H-pyrazol-5-yl)amino]-pyrimidin-2-yl}vinyl)benzoate], the inhibition at 100 µM in the assay on HCT-116 cell growth came to 97%; at recombinant Aurora A, 100%.
As to `Cc1cc(Nc2cc(N3CCN(C)CC3)nc(/C=C/c3ccc(Cl)cc3)n2)n[nH]1` [Example 49, 2-(4-chlorostyryl)-N-(5methyl-1H-pyrazol-3-yl)-6-(4-methylpiperazin-1-yl)pyrimidin-4-amine], the values for the inhibition at 100 µM with HCT-116 cell growth and on recombinant Aurora A were 75% and 100%, respectively.
Turning to `COc1cc(/C=C/c2nc(Nc3cc(C)[nH]n3)cc(N3CCN(C)CC3)n2)cc(OC)c1` [Example 50, 2-(3,5-dimethoxystyryl)-N-(5-methyl-1H-pyrazol-3-yl)-6-(4-methylpiperazin-1-yl)pyrimidin-4-amine], the results for the inhibition at 100 µM in the assay with HCT-116 cell growth and on recombinant Aurora A were 98% and 100%, respectively.
As to `Cc1ccc(/C=C/c2nc(Nc3cc(C)[nH]n3)c([N+](=O)[O-])c(N3CCN(C)CC3)n2)cc1` [Example 169], the inhibition at 100 µM at recombinant Aurora A worked out at 95%.
As to `Cc1cc(Nc2nc(/C=C/c3ccc(Cl)cc3)nc(N3CCN(C)CC3)c2[N+](=O)[O-])n[nH]1` [Example 171], the inhibition at 100 µM on recombinant Aurora A came out at 89%.
